# The supplement of paper PMC11208160
# Assay: recombinant barcode read abundance after kanamycin selection (control-corrected) (log10(CPM+1)); higher = more efficient recombination; sequences stand for … in AGTGCAGAGAAAATCGGCCAGTTTTCTCTGCCTGCAGTCCGCATGCCGT…AGATTTATGCAGCGGACTGCCTTTCTCCCAAAGTGATAAACCGGACAGTATCATGGACCGGTTTTCCCGGTAATCCGTATTTGCAAGGTTGGTTTCACT; site = the 11-nt target
# How it was run: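 Pooled E. coli screen pairing targets with IS621 bridge RNA target-binding loops. Each oligo (promoter, target, barcode, J23119-driven first 104 bridge RNA bases) was Gibson-cloned into a vector with the remaining 73 bp and T7-inducible recombinase, then co-electroporated with a donor plasmid. Two replicates each were plated on chloramphenicol/ampicillin LB agar (control) or chloramphenicol/ampicillin/kanamycin with 0.1 mM IPTG. Recombination efficiency is recombinant-junction barcode counts as CPM, averaged, control-corrected, reported as log10(CPM+1).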
row,Sequence,recombinant barcode read abundance (log10)
1,TTGCCGACTTGGGTTCTAACCTGTTGCCA (site TTGGCGACTTG),0.0806
2,TTGCCGACTTGGGTTCTAACCTGTTGCCA (site TTGTCGACTTG),0.116
3,TTGCCTTCTTGGGTTCTAACCTGTTGCCT (site TAGCCTTCTAG),0.106
4,TTGCCTTCTTGGGTTCTAACCTGTTGCCT (site TCGCCTTCTAG),0.0687
5,TTGCCTTCTTGGGTTCTAACCTGTTGCCT (site TGGCCTTCTAG),0.606
6,TTGCCTTCTTGGGTTCTAACCTGTTGCCT (site TTGCCTTCTAG),0.686
7,TTGGCAGCTTGGGTTCTAACCTGTTGCCT (site TTGGAAGCTAG),0.061
8,TTGGCAGCTTGGGTTCTAACCTGTTGCCT (site TTGGCAGCTAG),2.08
9,TTGGCAGCTTGGGTTCTAACCTGTTGCCT (site TTGGGAGCTAG),0.11
10,TTGGCAGCTTGGGTTCTAACCTGTTGCCT (site TTGGTAGCTAG),0.0352
11,TTGGCCTCTTGGGTTCTAACCTGTTGCCT (site GTGGCGTCTAG),0.15
12,TTGGCCTCTTGGGTTCTAACCTGTTGCCT (site TTGGCCTCTAG),1.27
13,TTGGCGACTTGGGTTCTAACCTGTTGCCA (site TTGACGACTTG),0.221
14,TTGGCGACTTGGGTTCTAACCTGTTGCCA (site TTGCCGACTTG),0.0473
15,TTGGCGACTTGGGTTCTAACCTGTTGCCA (site TTGGCGACTTG),0.118
16,TTGGCGACTTGGGTTCTAACCTGTTGCCA (site TTGTCGACTTG),0.0276
17,TTGGGAGCTTGGGTTCTAACCTGTTGCTG (site TTCGGAGCTCA),0.426
18,TTGGGAGCTTGGGTTCTAACCTGTTGCTG (site TTGGGAGCTCA),2.92

row,Sequence,recombinant barcode read abundance (log10)
1,TTGGTACCTTGGGTTCTAACCTGTTGCCT (site TTGGTACCTAG),2.41
2,TTGGTACCTTGGGTTCTAACCTGTTGCCT (site TTGGTCCCTAG),0.204
3,TTGGTACCTTGGGTTCTAACCTGTTGCCT (site TTGGTGCCTAG),0.138
4,TTGGTACCTTGGGTTCTAACCTGTTGCCT (site TTGGTTCCTAG),0.116
5,TTGGTAGCTTGGGTTCTAACCTGTTGCCT (site TTGGAAGCTAG),0.255
6,TTGGTAGCTTGGGTTCTAACCTGTTGCCT (site TTGGCAGCTAG),0.148
7,TTGGTAGCTTGGGTTCTAACCTGTTGCCT (site TTGGGAGCTAG),0.127
8,TTGGTAGCTTGGGTTCTAACCTGTTGCCT (site TTGGTAGCTAG),1.63
9,TTGGTGCCTTGGGTTCTAACCTGTTGCCT (site TTGGTACCTAG),1.97
10,TTGGTGCCTTGGGTTCTAACCTGTTGCCT (site TTGGTCCCTAG),0.0442
11,TTGGTGCCTTGGGTTCTAACCTGTTGCCT (site TTGGTGCCTAG),2.13
12,TTGGTGCCTTGGGTTCTAACCTGTTGCCT (site TTGGTTCCTAG),0.0399
13,TTGTACCCTTGGGTTCTAACCTGTTGCCT (site TTCTTCCCTAG),0
14,TTGTACCCTTGGGTTCTAACCTGTTGCCT (site TTGTACCCTAG),1.45
15,TTGTCGTCTTGGGTTCTAACCTGTTGCCT (site ATGTAGTCTAG),0.0378
16,TTGTCGTCTTGGGTTCTAACCTGTTGCCT (site TTGTCGTCTAG),1.25
17,TTGTGAGCTTGGGTTCTAACCTGTTGCGC (site AGTCACACTCT),0.182
18,TTGTGAGCTTGGGTTCTAACCTGTTGCGC (site TTGTGAGCTGC),1.68

# Assay: recombinant barcode read abundance after kanamycin selection (control-corrected) (log10(CPM+1)); higher = more efficient recombination; sequences stand for … in AGTGCAGAGAAAATCGGCCAGTTTTCTCTGCCTGCAGTCCGCATGCCGT…ATTTATGCAGCGGACTGCCTTTCTCCCAAAGTGATAAACCGGACAGTATCATGGACCGGTTTTCCCGGTAATCCGTATTTGCAAGGTTGGTTTCACT; site = the 11-nt target
# Experimental: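 Same pooled E. coli target screen (IS621 bridge recombinase, kanamycin selection, control-corrected CPM, mean of 2 biological replicates). Here the two core-binding nucleotides of the LTG and RTG of the bridge RNA target-binding loop are mutated. Target and donor CT cores are held constant, and the other 9 guide positions match the target. The target is read from the library oligo sequence. Molecule = full bridge RNA written as DNA: nt 1-80 from the library oligo, rest WT scaffold.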
row,Sequence,recombinant barcode read abundance (log10)
1,"AAACACACATGGGTTCTAACCTGTTGCCTAG [AAACACACTAG_LTGcore_CA_RTGcore_CT] (site AAACACACTAG) (LTG core: CA, RTG core: CT)",0.327
2,"AAACACACTTGGGTTCTAACCTGTTGCCTAA [AAACACACTAG_LTGcore_CT_RTGcore_TT] (site AAACACACTAG) (LTG core: CT, RTG core: TT)",1.12
3,"AAACACACTTGGGTTCTAACCTGTTGCCTCC [AAACACACTAG_LTGcore_CT_RTGcore_GG] (site AAACACACTAG) (LTG core: CT, RTG core: GG)",1.45
4,"AAACACACTTGGGTTCTAACCTGTTGCCTCG [AAACACACTAG_LTGcore_CT_RTGcore_CG] (site AAACACACTAG) (LTG core: CT, RTG core: CG)",1.01
5,"AAACACACTTGGGTTCTAACCTGTTGCCTGC [AAACACACTAG_LTGcore_CT_RTGcore_GC] (site AAACACACTAG) (LTG core: CT, RTG core: GC)",0.456
6,"AAACACAGCTGGGTTCTAACCTGTTGCCTGC [AAACACACTAG_LTGcore_GC_RTGcore_GC] (site AAACACACTAG) (LTG core: GC, RTG core: GC)",0.0607
7,"AAACACAGTTGGGTTCTAACCTGTTGCCTAC [AAACACACTAG_LTGcore_GT_RTGcore_GT] (site AAACACACTAG) (LTG core: GT, RTG core: GT)",0.112
8,"AAACACAGTTGGGTTCTAACCTGTTGCCTAG [AAACACACTAG_LTGcore_GT_RTGcore_CT] (site AAACACACTAG) (LTG core: GT, RTG core: CT)",0.804
9,"AAACACATCTGGGTTCTAACCTGTTGCCTAG [AAACACACTAG_LTGcore_TC_RTGcore_CT] (site AAACACACTAG) (LTG core: TC, RTG core: CT)",0.222
10,"AAACAGTATTGGGTTCTAACCTGTTGCCTAG [AAACAGTCTAG_LTGcore_AT_RTGcore_CT] (site AAACAGTCTAG) (LTG core: AT, RTG core: CT)",0.571
11,"AAACAGTCCTGGGTTCTAACCTGTTGCCTAG [AAACAGTCTAG_LTGcore_CC_RTGcore_CT] (site AAACAGTCTAG) (LTG core: CC, RTG core: CT)",0.93
12,"AAACAGTCGTGGGTTCTAACCTGTTGCCTAG [AAACAGTCTAG_LTGcore_CG_RTGcore_CT] (site AAACAGTCTAG) (LTG core: CG, RTG core: CT)",1.17
13,"AAACAGTCTTGGGTTCTAACCTGTTGCCTAA [AAACAGTCTAG_LTGcore_CT_RTGcore_TT] (site AAACAGTCTAG) (LTG core: CT, RTG core: TT)",1.55
14,"AAACAGTCTTGGGTTCTAACCTGTTGCCTCT [AAACAGTCTAG_LTGcore_CT_RTGcore_AG] (site AAACAGTCTAG) (LTG core: CT, RTG core: AG)",1.72
15,"AAACAGTCTTGGGTTCTAACCTGTTGCCTTC [AAACAGTCTAG_LTGcore_CT_RTGcore_GA] (site AAACAGTCTAG) (LTG core: CT, RTG core: GA)",1.45
16,"AAACAGTTATGGGTTCTAACCTGTTGCCTAG [AAACAGTCTAG_LTGcore_TA_RTGcore_CT] (site AAACAGTCTAG) (LTG core: TA, RTG core: CT)",0.0345
17,"AAACAGTTATGGGTTCTAACCTGTTGCCTTA [AAACAGTCTAG_LTGcore_TA_RTGcore_TA] (site AAACAGTCTAG) (LTG core: TA, RTG core: TA)",0.0835
18,"AAACATGATTGGGTTCTAACCTGTTGCCTAG [AAACATGCTAG_LTGcore_AT_RTGcore_CT] (site AAACATGCTAG) (LTG core: AT, RTG core: CT)",0.372
19,"AAACATGCCTGGGTTCTAACCTGTTGCCTAG [AAACATGCTAG_LTGcore_CC_RTGcore_CT] (site AAACATGCTAG) (LTG core: CC, RTG core: CT)",0.55
20,"AAACATGCCTGGGTTCTAACCTGTTGCCTGG [AAACATGCTAG_LTGcore_CC_RTGcore_CC] (site AAACATGCTAG) (LTG core: CC, RTG core: CC)",0.107
21,"AAACATGGGTGGGTTCTAACCTGTTGCCTAG [AAACATGCTAG_LTGcore_GG_RTGcore_CT] (site AAACATGCTAG) (LTG core: GG, RTG core: CT)",0.427
22,"AAACATGGTTGGGTTCTAACCTGTTGCCTAC [AAACATGCTAG_LTGcore_GT_RTGcore_GT] (site AAACATGCTAG) (LTG core: GT, RTG core: GT)",0.108
23,"AAACATGTATGGGTTCTAACCTGTTGCCTAG [AAACATGCTAG_LTGcore_TA_RTGcore_CT] (site AAACATGCTAG) (LTG core: TA, RTG core: CT)",0.0615
